Values belong to the molecule of their own block, whether it stands above or below them.
Assays:
Format in all cases: functional, cell-based
[1] = target: T1, ATP-dependent translocase ABCB1 (Homo sapiens, UniProt P08183); assay: TP_TRANSPORTER: inhibition of Rhodamine 123 efflux (R123: 10 uM, C6-SM: 10 uM) in 2780AD cells
[2] = target: T1, ATP-dependent translocase ABCB1; assay: TP_TRANSPORTER: inhibition of Rhodamine 123 efflux (R123: 10 uM, C6-GalCer: 20 uM) in 2780AD cells
[3] = target: T1, ATP-dependent translocase ABCB1; assay: TP_TRANSPORTER: inhibition of Rhodamine 123 efflux (R123: 10 uM, C6-LacCer: 20 uM) in 2780AD cells
[4] = target: T1, ATP-dependent translocase ABCB1; assay: TP_TRANSPORTER: inhibition of Rhodamine 123 efflux (R123: 10 uM, C6-GlcCer: 20 uM) in 2780AD cells

T1 sequence (P08183 whole entry): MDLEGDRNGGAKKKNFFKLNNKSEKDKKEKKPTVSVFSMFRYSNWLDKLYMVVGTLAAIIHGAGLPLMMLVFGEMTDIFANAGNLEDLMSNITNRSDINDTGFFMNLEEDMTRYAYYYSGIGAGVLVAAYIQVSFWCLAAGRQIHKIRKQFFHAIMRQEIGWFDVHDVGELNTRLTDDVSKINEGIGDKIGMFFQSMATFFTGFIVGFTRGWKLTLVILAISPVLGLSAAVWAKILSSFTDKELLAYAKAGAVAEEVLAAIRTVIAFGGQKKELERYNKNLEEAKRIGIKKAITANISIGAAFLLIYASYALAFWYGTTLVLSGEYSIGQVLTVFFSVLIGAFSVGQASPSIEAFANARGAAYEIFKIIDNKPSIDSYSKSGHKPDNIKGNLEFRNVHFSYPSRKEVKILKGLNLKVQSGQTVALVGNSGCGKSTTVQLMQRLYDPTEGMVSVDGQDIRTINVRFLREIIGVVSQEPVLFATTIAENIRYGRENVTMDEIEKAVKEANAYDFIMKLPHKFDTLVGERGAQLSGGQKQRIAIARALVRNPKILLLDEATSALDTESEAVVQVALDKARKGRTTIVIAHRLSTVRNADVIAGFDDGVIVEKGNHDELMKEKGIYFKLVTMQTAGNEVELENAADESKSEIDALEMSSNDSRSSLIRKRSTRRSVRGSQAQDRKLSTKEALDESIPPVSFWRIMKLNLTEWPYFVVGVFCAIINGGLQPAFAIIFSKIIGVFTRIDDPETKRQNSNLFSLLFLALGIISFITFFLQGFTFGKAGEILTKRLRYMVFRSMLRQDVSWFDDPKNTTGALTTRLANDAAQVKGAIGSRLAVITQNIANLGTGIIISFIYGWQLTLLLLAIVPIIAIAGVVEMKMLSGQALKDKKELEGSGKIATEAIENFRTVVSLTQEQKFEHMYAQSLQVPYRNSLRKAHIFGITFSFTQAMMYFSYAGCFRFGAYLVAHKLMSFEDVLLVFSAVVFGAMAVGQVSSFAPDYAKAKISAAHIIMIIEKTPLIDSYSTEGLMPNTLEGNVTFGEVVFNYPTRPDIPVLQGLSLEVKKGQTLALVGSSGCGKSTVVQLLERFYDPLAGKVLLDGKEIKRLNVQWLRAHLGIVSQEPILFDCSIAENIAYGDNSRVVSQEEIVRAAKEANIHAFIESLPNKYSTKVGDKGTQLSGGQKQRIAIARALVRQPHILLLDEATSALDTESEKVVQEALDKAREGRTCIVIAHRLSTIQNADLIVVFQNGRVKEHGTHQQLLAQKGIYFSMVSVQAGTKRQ

Activity [1]: inhibitor [+]
Compound: CCCCCCCCCCCCCCCC(O)C(CO)NC(=O)CCCCCC (centres undefined)

Activity [2]: inhibitor [+]
Compound: CCCCCCCCCCCCC/C=C/[C@@H](O)[C@H](CO[C@@H]1O[C@H](CC)[C@H](O)[C@H](O)[C@H]1O)NC(=O)CCCCCC

Activity [3]: inhibitor [+]
Compound: CCCCCCCCCCCCC/C=C/[C@@H](O)[C@H](CO[C@@H]1O[C@H](CC)[C@@H](O[C@@H]2O[C@H](CO)[C@@H](O)[C@H](O)[C@H]2O)[C@H](O)[C@H]1O)NC(=O)CCCCCC

Activity [4]: inhibitor [+]
Compound: CCCCCCCCCCCCC/C=C/[C@@H](O)[C@H](CO[C@@H]1O[C@H](CC)[C@@H](O)[C@H](O)[C@H]1O)NC(=O)CCCCCC

Reference: ChEMBL document CHEMBL2074108, “Inhibition of P-glycoprotein activity and chemosensitization of multidrug-resistant ovarian carcinoma 2780AD cells by hexanoylglucosylceramide” (Biochem Biophys Res Commun, 1999)
